Laboratory results reported in US4608365A, “Treatment of neurologic functions” (priority 1984, dated 1986).

Tests used:
[1] = system: ALS patients; settings: human, in vivo
Procedure: Five ALS patients (men, women, duration of disease one, one, three and one-half, four and three years, respectively) were given TRH as a continuous intravenous infusion. […] For about one-fifth of the days, the patients were given saline placebo.
It should be noted that the TRH administered in Example I was infused at a rate of up to 200 mg. over a twenty-four hour period. In terms of presence in the body at any one time, this amounted to an infusion rate of about 0.14 mg/minute ([…] body weight based upon the average patient weight of 70 kg). Accordingly, and in view of the significant results shown in Examples II-VIII, it appears that an elevated initial dose and consequently a blood level peak, providing a pulse-effect, is required each time TRH is given. Specifically, in Example IV, intravenous infusion at one milligram per minute (over seven times the infusion rate in Example I) produced an improvement of strength in several muscle functions. […] In Example IV, an acute increase in strength occurred at 4.7 mg/minute intravenously.
There were several control aspects of the TRH studies. […] The patients given subcutaneous TRH had treatments interspersed with saline placebo injections. […] The time course of response was not known before the study and, in fact, it was expected that the onset would be later and the duration of response longer than was actually found. […]

[2] = system: ALS patients; assay type: in vivo, human
Procedure: Nine fasting ALS patients (seven men, and two women; duration of disease, two, three, five-sixths of a year, five-sixths of a year, two and a half, four, one, one and four years, respectively) were given intravenous TRH at rates of 0.5-8 mg/minute, total 500 mg during two to five hours in one day, for one or two days. Due to the fact that the effects during the second day resembled those on the first day in the first two patients (men) and because supplies of TRH were limited, […] were treated for one day only. Before and throughout TRH administration, motor functions were repeatedly examined, the tests being selected according to the specific clinical involvement in each patient. Testing in all patients was videotaped. […] For example, muscles (such as biceps, triceps, deltoid, iliopsoas, or peroneal) that could be overcome easily by one finger before TRH administration became completely resistant to the full force of the examiner's hand (i.e., became normal or virtually normal). In one person, thumb abduction and finger-thumb pincer movement, easily overcome before the infusion of TRH, became normal. […] Speech clarity and volume improved. Spasticity of the legs lessened, as evidenced by easier, more rapid and "looser" bicycling-like movement, heel-shin movement and heel-knee tapping of the legs, as well as more agile walking.
As an extension of the Example III and IV studies, a total of twenty-three patients (including those of Examples II and IV) were given 156 intravenous dose-days total.
There were several control aspects of the TRH studies. […] The patients given subcutaneous TRH had treatments interspersed with saline placebo injections. […] The time course of response was not known before the study and, in fact, it was expected that the onset would be later and the duration of response longer than was actually found. Different patients responded to different doses of TRH, and the sex difference in response (woman apparently less responsive) was not expected. […] There were three observers, one unaware of the infusion status. In addition, clinical examinations of all patients of Examples III-VII were videotaped and later reviewed by several observers.

[3] = system: amyotrophic lateral sclerosis patients; assay: Effect of TRH on chronic joint pain in ALS patients (Example VIII); assay type: in vivo, human; settings: after TRH treatment
Description: In untreated amyotrophic lateral sclerosis patients, especially in more advanced stages of the disease, aching of joints is common, (e.g., in a "frozen shoulder" or painful hip). Often, the pain is so severe as to impair sleep. […] The reduction of pain was clearly appreciated when the patients were awake, and it also allowed much more restful nights without their being awakened frequently by pain. […] A logical extension of this observation is that pain of many causes, including other forms of arthritic pain, might be lessened by TRH, or an analog, active derivative or analog of an active derivative of TRH.

[4] = system: tissue-cultured fetal rat lower motor neurons; assay: Trophic-like effect on tissue-cultured fetal rat lower motor neurons (cholineactyltransferase); assay type: cell-based; settings: chronic
Description: "Transmitter-like," as used herein, includes not only direct excitatory (or facilitatory) and inhibitory actions on the lower motor neurons, but also any action on lower motor neurons or afferents thereto that results indirectly in such an effect. That excitatory TRH action, increasing patients' strength, is either directly excitatory or facilitatory and perhaps analogous to the lower motor neuron facilitation of glutamate excitation noted with TRH micropipetted into spinal cords of normal amphibia (Nicoll, J. Pharmac. Exp. Therap. 1978; 207: 817-24; Phillis et al., Can. J. Physiol. Pharmacol. 1979; 57: 887-99 and rodents, White Abstr. Soc. Neurosci 1983, 9: 714, and in other animal studies. An inhibitory transmitter-like action seems likely to underlie both the rapid-onset autorefractory phenomenon and the possibly related clinical reduction of spasticity, spasms and cramps. A tachyphalaxis or desensitization phenomenon, perhaps similar to the clinical autorefractory state, has been noted in animal lower motor neurons with larger amounts of TRH micropipetted into the spinal cord (Nicoll and Phillis, et al., supra).

NC(=O)[C@@H]1CCCN1C(=O)[C@H](Cc1cnc[nH]1)NC(=O)[C@@H]1CCC(=O)N1 [TRH, L-pyroglutamyl-L-histidyl-L-prolinamide]
transient rise in serum aminotransferases [1]: has not been found
intravenous rate at which striking improvement was shown ([2]; Examples II and III (summary)): 2 mg/min
minimum intravenous infusion rate per body weight ([2]; based on average patient weight of 70 kilograms): ≥ 14.3 μg/minute/kg of body weight
benefit and side-effects in the two women ([2]; i.v. 0.5-8 mg/minute): much less benefit and many fewer side-effects than the men
quantitative response of women relative to men ([2]; i.v. 0.5-8 mg/minute): resembled those of men on one-half to one-fourth of the TRH dosage
ankle clonus ([2]; i.v. 2-8 mg/minute): decreased or disappeared
brisk tendon reflexes ([2]; i.v. 2-8 mg/minute): diminished not at all or only slightly
extensor plantar (Babinski) responses ([2]; i.v. 2-8 mg/minute): improved, becoming neutral or normal flexor
fasciculations ([2]; i.v. 2-8 mg/minute): appeared to be unchanged
spasticity of the legs ([2]; i.v. 2-8 mg/minute): lessened
speech clarity and volume ([2]; i.v. 2-8 mg/minute): improved
vital capacity ([2]; i.v. 2-8 mg/minute): increased, by as much as one liter
residual improvement after the end of the infusion ([2]; i.v., total 500 mg): some slight improvement still evident twenty hours after the end of the infusion
time improvements were sustained after the infusion ([2]; i.v., total 500 mg during two to five hours): one-half to one hour afterwards
improvement of muscle weakness and spasticity ([2]; men, i.v. 2-8 mg/minute, in some areas of involvement): striking improvement
duration of full benefit after intravenous infusions ([2]; summary): up to one hour
arthritic (joint) pain [3]: striking improvement
duration of pain improvement [3]: as long as one to four days
enhancement of cholineactyltransferase [4]: 17 fold
